Measurements from patent publication US5767116A, “Bicyclic aromatic compounds as therapeutic agents” (Knoll Atkiengesellschaft, priority 1993, dated 1998).
Structures can show the parent of a compound that is named as a salt. Where two headings read alike, the source gives them in different places.

What was measured:
[1] = system: α1-adrenoceptors; test: inhibition of tritiated ligand ([7-methoxy-^3 H]prazosin) binding to α1-adrenoceptors in vitro (whole cortical tissue); design: species or system rat (male Charles River CD); conditions: rat whole cortical tissue; for % displacement at 10^-6 M, α1: 30 min, 1 µM; for Ki: 30° C., 30 minutes, > from highest concentration which displaced ≤50% of the ligand
Protocol: The supernatant was centrifuged at 30,000 g at 4° C. for 10 minutes. […] Aliquots (400 μl; equivalent to 5 mg wet weight of tissue/tube) of this suspension were added to tubes containing the ligand (50 μl; 0.1 nM) and distilled water (50 μl; total binding) or phentolamine (50 μl; 5 μM; non-specific binding) or test compound (50 μl; at a single concentration of 10^-6 M or at 10 concentrations ranging from 10^-11 -10^-3 M). The ligand was [7-methoxy-^3 H]prazosin and the mixture was incubated at 30° C. for 30 minutes before the incubation was terminated by rapid filtration.
(§1) The filters were punched out into vials, scintillation fluid added and radioactivity determined by liquid scintillation counting. The percentage displacement of specific binding of the tritiated ligand was calculated for the single concentration (10^-6 M) of test compound. Displacement curves were then produced for those compounds which displaced ≥50% of specific binding of the tritiated ligand at 10^-6 M using a range of concentrations of the compound. […] The inhibition coefficient Ki was then calculated using the formula [formula] in which [ligand] is the concentration of the tritiated ligand used and KD is the equilibrium dissociation constant for the ligand.

[2] = biological target: T1, α2-adrenoceptors (Rattus norvegicus, UniProt P22909); test: inhibition of tritiated ligand (tritiated idazoxan) binding to α2-adrenoceptors in vitro (frontal cortical tissue); design: species or system rat (male Charles River CD); conditions: for Ki: 0° C., 75 minutes, > from highest concentration which displaced ≤50% of the ligand
T1 sequence (P22909 1-465): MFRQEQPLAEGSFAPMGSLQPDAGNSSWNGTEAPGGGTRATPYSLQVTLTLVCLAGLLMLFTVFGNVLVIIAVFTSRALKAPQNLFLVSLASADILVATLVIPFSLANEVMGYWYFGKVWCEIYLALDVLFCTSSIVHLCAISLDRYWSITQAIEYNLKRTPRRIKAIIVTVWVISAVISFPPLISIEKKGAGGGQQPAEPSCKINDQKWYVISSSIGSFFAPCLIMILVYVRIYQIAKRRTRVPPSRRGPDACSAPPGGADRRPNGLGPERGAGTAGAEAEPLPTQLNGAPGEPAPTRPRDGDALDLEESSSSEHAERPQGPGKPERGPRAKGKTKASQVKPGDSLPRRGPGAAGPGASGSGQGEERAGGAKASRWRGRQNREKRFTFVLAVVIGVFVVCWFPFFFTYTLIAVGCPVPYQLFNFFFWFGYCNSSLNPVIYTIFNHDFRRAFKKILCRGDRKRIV
Protocol: Frontal cortical tissue from the brains of male Charles River CD rats weighing between 150-250 g were homogenised in ice-cold 0.25M sucrose (1:30 w/v) and centrifuged at 1,000 g at 4° C. for 12 minutes. The supernatant was stored on ice and the pellet was rehomogenised in 0.25M sucrose (1:15 w/v) and centrifuged at 850 g at 4° C. for 12 minutes. Combined supernatants were diluted with 5 mM Tris-HCl (pH 7.5) containing 0.5M ethylenediamine tetraacetic acid (EDTA) readjusted to pH 7.5 (at 25° C.) with 1M sodium hydroxide to 1:80 w/v, and centrifuged at 30,000 g at 4° C. for 10 minutes. The resulting pellet was resuspended in 5 mM Tris-HCl (pH 7.5) containing 5.68 mM L-ascorbic acid and 5 mM EDTA readjusted to pH 7.5 (at 25° C.) with 1M sodium hydroxide, and centrifuged at 30,000 g for 10 minutes. The final pellet was resuspended in 50 mM Tris-HCl (pH 7.5) containing 5.68 mM L-ascorbic acid and 5 mM EDTA (equivalent to 12.5 mg wet weight of tissue/ml) and used immediately in the binding assay. Aliquots (400 μl; equivalent to 5 mg wet weight of tissue/tube) of this suspension were added to tubes containing the ligand (50 μl; 1 nM) and distilled water (50 μl; total binding) or phentolamine (50 μl; 5 μM; non-specificbinding) or test compound (50 μl; at a single concentration of 10^-6 M or at 10 concentrations ranging from 10^-11 -10^-3 M). The ligand was tritiated idazoxan ((1,4-[6,7(n)-^3 H]benzodioxan-2-yl)-2-imidazoline hydrochloride) and the mixture was incubated at 0° C. for 75 minutes before the incubation was terminated by rapid filtration.
as §1, with “The filters were washed with ice-cold Tris-HCl buffer and dried. The filters” for “The filters”

[3] = biological target: T2, 5-HT1A receptors (Rattus norvegicus, UniProt P19327); test: biochemical; type: binding, rat (male Charles River CD); conditions: for Ki: 25° C., 30 minutes
T2 sequence (P19327 1-422): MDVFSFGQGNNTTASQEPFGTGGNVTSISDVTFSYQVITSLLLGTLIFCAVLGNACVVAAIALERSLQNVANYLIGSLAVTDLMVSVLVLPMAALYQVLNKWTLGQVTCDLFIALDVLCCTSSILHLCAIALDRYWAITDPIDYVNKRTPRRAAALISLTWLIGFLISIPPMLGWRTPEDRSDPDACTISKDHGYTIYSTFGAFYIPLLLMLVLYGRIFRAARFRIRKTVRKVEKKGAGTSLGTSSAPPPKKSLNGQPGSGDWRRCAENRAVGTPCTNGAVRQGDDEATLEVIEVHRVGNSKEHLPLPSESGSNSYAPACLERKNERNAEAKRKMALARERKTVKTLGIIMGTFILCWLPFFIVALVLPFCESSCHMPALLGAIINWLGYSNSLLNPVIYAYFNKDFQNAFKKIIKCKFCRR
Protocol: The pellet was rehomogenised in the same buffer, incubated at 37° C. for 10 minutes and centrifuged at 30,000 g at 4° C. for 10 minutes. […] Aliquots (400 μl; equivalent to 2.5 mg wet weight of tissue/tube) of this suspension were added to tubes containing the ligand (50 μl; 2 nM) and distilled water (50 μl; total binding) or 5-HT (50 μl; 10 µM; non-specific binding) or test compound (50 μl; at a single concentration of 10^-6 M or at 10 concentrations ranging from 10^-11 -10^-3 M). The ligand was [^3 H]8-hydroxy-2-(dipropylamino)tetralin([^3 H]8-OH-DPAT) and the mixture was incubated at 25° C. for 30 minutes before the incubation was terminated by rapid filtration.
as §1

[4] = biological target: D2 dopamine receptors (Rattus norvegicus, UniProt P61169); test: biochemical; type: binding, rat (male Charles River CD); conditions: rat striatal tissue, tritiated (S)-sulpiride, 4° C., 40 minutes
D2 dopamine receptors, sequence (P61169 whole entry): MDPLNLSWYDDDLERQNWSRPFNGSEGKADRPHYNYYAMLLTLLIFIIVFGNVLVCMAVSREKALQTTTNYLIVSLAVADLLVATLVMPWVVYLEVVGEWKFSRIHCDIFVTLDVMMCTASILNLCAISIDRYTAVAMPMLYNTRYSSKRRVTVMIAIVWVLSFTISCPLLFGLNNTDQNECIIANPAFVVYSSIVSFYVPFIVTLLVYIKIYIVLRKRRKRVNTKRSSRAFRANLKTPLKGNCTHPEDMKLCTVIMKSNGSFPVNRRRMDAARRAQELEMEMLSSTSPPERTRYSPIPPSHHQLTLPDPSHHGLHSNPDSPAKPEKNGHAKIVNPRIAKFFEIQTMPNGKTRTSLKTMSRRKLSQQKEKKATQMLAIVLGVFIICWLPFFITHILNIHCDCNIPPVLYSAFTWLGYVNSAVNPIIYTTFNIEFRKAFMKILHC

[5] = 10^-6 M, rat frontal cortical tissue, tritiated idazoxan, read-out: % displacement at 10^-6 M, α2
[6] = 10^-6 M, rat hippocampal tissue, [^3 H]8-OH-DPAT, read-out: % displacement at 10^-6 M, 5-HT1A
[7] = read-out: % displacement at 10^-6 M, α2, 10^-6 M, rat frontal cortical tissue, tritiated idazoxan
[8] = read-out: % displacement at 10^-6 M, 5-HT1A, 10^-6 M, rat hippocampal tissue, [^3 H]8-OH-DPAT
[9] = rat frontal cortical tissue, tritiated idazoxan
[10] = rat hippocampal tissue, [^3 H]8-OH-DPAT

Row | Compound | % displacement at 10^-6 M, α1 [1] [%] | inhibition at 1 µM [2, 5] [%] | inhibition at 1 µM [3, 6] [%] | inhibition at 1 µM [2, 7] [%] | inhibition at 1 µM [3, 8] [%] | Ki [4] [nM] | Ki [1] [nM] | Ki [2, 9] [nM] | Ki [3, 10] [nM]
1 | c1ccc(N2CCC(CNCC3COc4ccccc4O3)CC2)nc1 (single isomer, unassigned; (+)) [Example 20, (+)-N-(1,4-benzodioxan-2-ylmethyl)-1-[1-pyrid-2-yl)piperid-4-yl]methylamine dihydrochloride] | 94 | 91 | 82 | – | – | – | – | – | –
2 | Cl.Cl.c1ccc(N2CCC(CNCC3COc4ccccc4O3)CC2)nc1 (single isomer, unassigned; (-)) [Example 19, (-)-N-(1,4-benzodioxan-2-ylmethyl)-1-[1-(pyrid-2-yl)piperid-4-yl]methylamine dihydrochloride] | 98 | – | – | 96 | 98 | – | – | – | –
3 | c1ccc2c(c1)OCC(CNCC1CCN(c3cnccn3)CC1)O2 (centres unmarked) [Example 1, N-(1,4-benzodioxan-2-ylmethyl)-1-[1-(pyrazin-2-yl)piperid-4-yl]methylamine1.4 hydrochloride] | – | – | – | – | – | 15.6 | 23.9 | 31 | 14
4 | COc1ccccc1N1CCC(CNCC2COc3ccccc3O2)CC1 (centres unmarked) [Example 2, N-(1,4-benzodioxan-2-ylmethyl)-1-[1-(2-methoxyphenyl)piperid-4-yl]methylamine dihydrochloride] | – | – | – | – | – | 19 | 78 | 394 | 7.7
5 | Clc1cccnc1N1CCC(CNCC2COc3ccccc3O2)CC1 (centres unmarked) [Example 3, N-(1,4-benzodioxan-2-ylmethyl)-1-[1-(3-chloropyrid-2-yl)piperid-4-yl]methylamine 1.4 hydrochloride] | – | – | – | – | – | 45.3 | 38 | 86 | 1.9
6 | c1ccc2c(c1)OCC(CNCC1CCN(c3ncnc4ccccc34)CC1)O2 (centres unmarked) [Example 4, N-(1,4-benzodioxan-2-ylmethyl)-1-[1-(quinazolin-4-yl)piperid-4-yl]methylamine dihydrochloride] | – | – | – | – | – | 35.8 | 13 | 30 | 3.8
7 | c1ccc(N2CCC(CNCC3COc4ccccc4O3)CC2)nc1 (centres unmarked) [Example 5, N-(1,4-benzodioxan-2-ylmethyl)-1-[1-(pyrid-2-yl)piperid-4-yl]methylamine dihydrochloride] | – | – | – | – | – | 29 | 79 | 50 | 22.6
8 | COc1ccccc1N1CCC(CNCC2COc3cccc(OC)c3O2)CC1 (centres unmarked) [Example 6, N-(8-methoxy-1,4-benzodioxan-2-ylmethyl)-1-[1-(2-methoxyphenyl)piperid-4-yl]methylamine dihydrochloride] | – | – | – | 92 | – | 8.5 | 3.7 | – | 252
9 | COc1ccccc1N1CCC(CNC[C@H]2COc3ccccc3O2)CC1 [Example 7, (S)-(-)-N-(1,4-benzodioxan-2-ylmethyl)-1-[1-(2-methoxyphenyl)-piperid-4-yl]methylamine] | 94 | 72 | 96 | – | – | – | – | – | –
10 | Cl.Cl.c1ccc(N2CCC(CNCC3COc4ccccc4O3)CC2)cc1 (centres unmarked) [Example 12, N-(1,4-benzodioxan-2-ylmethyl)-1-(1-phenylpiperid-4-yl)methylamine dihydrochloride] | 89 | – | – | 66 | 97 | – | – | – | –
11 | Cl.Cl.c1ccc2c(c1)OCC(CNCC1CCN(c3cccc4c3OCCO4)CC1)O2 (centres unmarked) [Example 13, N-(1,4-benzodioxan-2-ylmethyl)-1-[1-(1,4-benzodioxan-5-yl)piperid-4-yl]methylamine dihydrochloride] | 93 | – | – | 66 | 100 | – | – | – | –
12 | COc1ccccc1N1CCC(CNC[C@@H]2COc3ccccc3O2)CC1 [Example 14, (R)-(+)-N-(1,4-benzodioxan-2-ylmethyl)-1-[1-(2-methoxyphenyl)piperid-4-yl]methylamine] | 57 | – | 87 | – | – | – | – | > 500 | –
13 | COc1ccccc1NCC1CCN(CC2COc3ccccc3O2)CC1.O=C(O)C(=O)O (centres unmarked) [Example 15, 1-[1-(1,4-benzodioxan-2-ylmethyl)piperid-4-yl]-N-(2-methoxyphenyl)methylamine mono-oxalate] | 94 | – | – | 94 | 97 | – | – | – | –
14 | COc1ccc(N2CCC(CNCC3COc4ccccc4O3)CC2)cc1.Cl.Cl (centres unmarked) [Example 16, N-(1,4-benzodioxan-2-ylmethyl)-1-[1-(4-methoxyphenyl)piperid-4-yl]methylamine dihydrochloride] | 94 | – | – | 64 | 98 | – | – | – | –
15 | COc1cccc(N2CCC(CNCC3COc4ccccc4O3)CC2)c1 (centres unmarked) [Example 18, N-(1,4-benzodioxan-2-ylmethyl)-1-[1-(3-methoxyphenyl)piperid-4-yl]methylamine hydrochloride] | – | – | – | – | – | – | – | 242 | 7
16 | COc1ccccc1N1CCC(CNCC2COc3cccc(O)c3O2)CC1 (centres unmarked) [Example 28, N-(8-hydroxy-1,4-benzodioxan-2-ylmethyl) -1-[1-(2-methoxyphenyl)piperid-4-yl]methylamine] | – | – | 94 | – | – | – | > 500 | > 500 | –
